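Step 1: Grow cells in 96-well plates. Step 2: Expose to compound for 48 hours at 5 concentrations. Step 3: Interpolate endpoints linearly; if unreached, use highest concentration. The concentration for 50% growth inhibition is given as GI50.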 Active and inactive are the calls of the source. No stated cut-off is given here; in the data, active = GI50 up to about 1.1 µM and inactive = higher.
Assays:
Experiment in all cases: NCI tumour cell line growth inhibition, 48 h
[1] = test system: EKVX
[2] = test system: HOP-62
[3] = test system: A498
[4] = test system: MDA-N
[5] = test system: PC-3
[6] = test system: HCT-116
[7] = test system: SK-MEL-2
[8] = test system: A549
[9] = test system: HOP-92
[10] = test system: NCI-H226
[11] = test system: SK-OV-3
[12] = test system: OVCAR-8
[13] = test system: SR
[14] = test system: 786-0
[15] = test system: MDA-MB-435
[16] = test system: OVCAR-4
[17] = test system: MDA-MB-231
[18] = test system: RXF 393
[19] = test system: HT-29

Measured: GI50

C=C(C)[C@H]1C2=CC(C)=C(O2)[C@@H](O[C@@H]2c3oc(cc3C)[C@H](C(=C)C)[C@H]3C=C(CC[C@H]2C(=C)C)C(=O)O3)[C@H](C(=C)C)CCC2=C[C@H]1OC2=O
inactive: [1] > 100 µM | [2] 81.1 µM | [3] > 100 µM | [4] > 100 µM | [5] > 100 µM | [6] > 100 µM | [7] > 100 µM | [8] > 100 µM | [9] > 100 µM | [10] > 100 µM | [11] > 100 µM | [12] > 100 µM | [13] > 100 µM | [14] > 100 µM | [15] > 100 µM | [16] > 100 µM | [17] > 100 µM

c1ccc2c(c1)c1c(c3ccccc32)CN2CCCC2C1 (configuration not stated)
inactive: [1] 4.74 µM | [2] 2.79 µM | [3] 3.72 µM | [18] 2.34 µM | [4] 2.82 µM | [5] 3 µM | [6] 3.17 µM | [7] 2.3 µM | [8] 2.96 µM | [9] 2.84 µM | [11] 7.52 µM | [12] 3.17 µM | [13] 4.89 µM | [14] 3.94 µM | [15] 4.42 µM | [16] 3.3 µM | [19] 3.72 µM | [17] 3.2 µM

O=c1[nH]c(N/N=C\C(O)C(O)C(O)C(O)CO)nc2ccccc12 (configuration not stated)
inactive: [1] > 100 µM | [2] > 100 µM | [3] > 100 µM | [4] > 100 µM | [5] > 100 µM | [6] > 100 µM | [7] > 100 µM | [8] > 100 µM | [9] > 100 µM | [10] > 100 µM | [11] > 100 µM | [12] > 100 µM | [13] > 100 µM | [14] > 100 µM | [15] > 100 µM | [19] > 100 µM | [17] > 100 µM

CCOP(=O)(OCC)C(C)(C)OC(=O)NC#N
inactive: [1] > 100 µM | [2] > 100 µM | [18] > 100 µM | [4] > 100 µM | [5] > 100 µM | [6] > 100 µM | [7] > 100 µM | [8] > 100 µM | [9] > 100 µM | [10] > 100 µM | [11] > 100 µM | [12] > 100 µM | [13] > 100 µM | [14] > 100 µM | [15] > 100 µM | [16] > 100 µM | [19] > 100 µM | [17] > 100 µM

CC1(C)CC23CC(C)(C)c4cccc(c42)OCc2ccc4ccc5ccc(nc5c4n2)COc2cccc1c23
inactive: [1] > 50 µM | [2] > 50 µM | [3] > 50 µM | [4] > 50 µM | [5] > 50 µM | [6] > 50 µM | [7] > 50 µM | [8] > 50 µM | [9] > 50 µM | [10] > 50 µM | [11] > 50 µM | [12] > 50 µM | [13] > 50 µM | [14] > 50 µM | [15] > 50 µM | [16] > 50 µM | [19] > 50 µM | [17] > 50 µM

COc1ccc(/C=C2\N=C(N3CCOCC3)NC2=O)cc1
inactive: [1] > 100 µM | [2] > 100 µM | [18] > 100 µM | [4] > 100 µM | [5] > 100 µM | [6] > 100 µM | [7] > 100 µM | [8] > 100 µM | [9] > 100 µM | [10] > 100 µM | [11] > 100 µM | [12] > 100 µM | [13] > 100 µM | [14] > 100 µM | [15] > 100 µM | [16] > 100 µM | [19] > 100 µM | [17] > 100 µM

COC1=C2C[C@](OC)(C#CC=CC#CC2O)CC1(C)C (some centres not stated)
inactive: [1] > 100 µM | [2] > 100 µM | [18] > 100 µM | [4] > 100 µM | [5] > 100 µM | [6] > 100 µM | [8] 40.4 µM | [10] > 100 µM | [12] > 100 µM | [13] 56.4 µM | [14] > 100 µM | [15] > 100 µM | [19] > 100 µM | [17] > 100 µM

COC(=O)Oc1nn(C(=O)OC)c(=O)c2ccccc12
inactive: [1] > 100 µM | [2] > 100 µM | [4] > 100 µM | [5] > 100 µM | [6] > 100 µM | [7] > 100 µM | [8] > 100 µM | [10] > 100 µM | [11] > 100 µM | [12] > 100 µM | [13] > 100 µM | [14] > 100 µM | [15] > 100 µM | [17] 95.3 µM

C=CCOc1ccc(C2(O)c3ccccc3C3=NCCCN32)cc1 (configuration not stated)
inactive: [1] 80.5 µM | [2] 60.5 µM | [3] > 100 µM | [4] 36.1 µM | [5] 33.5 µM | [6] 49.9 µM | [7] 20.3 µM | [8] 55.3 µM | [9] 43.6 µM | [10] > 77.1 µM | [11] > 95.9 µM | [12] > 100 µM | [13] 25.2 µM | [14] 38.3 µM | [15] 30.1 µM | [16] > 71 µM | [19] > 65.9 µM | [17] > 63 µM

CCOC(=O)CC(=O)C(=O)NN=C1NCCCN1
inactive: [1] > 100 µM | [2] > 100 µM | [18] > 100 µM | [4] > 100 µM | [5] > 100 µM | [6] > 100 µM | [7] > 100 µM | [8] > 100 µM | [9] > 100 µM | [10] > 100 µM | [11] > 100 µM | [12] > 100 µM | [13] > 100 µM | [14] > 100 µM | [15] > 100 µM | [16] > 100 µM | [19] > 100 µM | [17] > 100 µM

CN(CCc1ccc(N)cc1)[C@H]1CCCC[C@H]1N1CCCC1
inactive: [1] > 100 µM | [2] > 100 µM | [3] > 100 µM | [18] > 100 µM | [4] > 100 µM | [5] > 100 µM | [6] > 100 µM | [7] > 100 µM | [8] > 100 µM | [9] > 100 µM | [10] > 100 µM | [11] > 100 µM | [12] > 100 µM | [14] > 100 µM | [15] > 100 µM | [16] > 100 µM | [19] 78.2 µM | [17] > 100 µM

COC(=O)C1(NC(=O)C(CC(=O)OCc2ccccc2)NC(=O)OCc2ccccc2)CCCCCC1 (configuration not stated)
inactive: [1] 47.6 µM | [2] 10.1 µM | [18] 55 µM | [4] 24.7 µM | [5] 28.6 µM | [6] 31 µM | [8] 32.8 µM | [9] 36.6 µM | [10] 29.4 µM | [11] 35.4 µM | [12] 27.2 µM | [13] 18.4 µM | [14] 38.5 µM | [15] 28.8 µM | [16] 14.1 µM | [19] 22 µM | [17] 32.4 µM

CN(/N=C/c1ccc(Cl)c(Cl)c1)C1=NCCN1
inactive: [1] 59 µM | [2] 17.4 µM | [3] 12.1 µM | [4] 15.7 µM | [5] 11.9 µM | [6] 17.9 µM | [7] 18.5 µM | [8] 33.4 µM | [9] 21.7 µM | [10] 27.1 µM | [11] 22.4 µM | [12] 40.3 µM | [13] 31.2 µM | [14] 16.4 µM | [15] 19.5 µM | [16] 41.2 µM | [19] 25.2 µM | [17] 23 µM

COc1ccc(C(=O)/C=C/c2ccc(OCC(=N)N)cc2)cc1
inactive: [1] 16.4 µM | [2] 15.8 µM | [3] 13.6 µM | [18] 14.7 µM | [4] 16.7 µM | [5] 14.7 µM | [6] 4.55 µM | [8] 17.7 µM | [9] 15.2 µM | [10] 18.8 µM | [11] 12.9 µM | [12] 14.3 µM | [13] 5 µM | [14] 16.3 µM | [15] 19.3 µM | [16] 14.7 µM | [19] 15.3 µM | [17] 12.9 µM

COc1ccc(-n2c3c(c4c(CN(C)C)c(O)ccc42)C(=O)c2ccccc2C3=O)cc1
inactive: [1] 7.76 µM | [2] 2.02 µM | [3] 1.21 µM | [18] 4.63 µM | [4] 4.62 µM | [5] 13 µM | [6] 1.68 µM | [7] 10 µM | [8] 4.68 µM | [9] 16 µM | [11] 2.48 µM | [12] 3.26 µM | [13] 2.45 µM | [14] 1.89 µM | [15] 6.93 µM | [16] 2.37 µM | [19] 2.19 µM | [17] 3.08 µM

CCCCCCc1cc2cc(C(=O)Nc3ccccc3)c(=N)oc2cc1O
inactive: [1] 3.29 µM | [2] 2.76 µM | [3] 26.2 µM | [18] 5.56 µM | [4] 3.88 µM | [5] 2.86 µM | [6] 2.5 µM | [7] 2.45 µM | [8] 3.27 µM | [9] 3.25 µM | [10] > 25.6 µM | [11] 3.34 µM | [12] 3.93 µM | [14] 3.21 µM | [15] 3.53 µM | [16] 4.13 µM | [19] 3.28 µM | [17] 3.36 µM

Source: ChEMBL document CHEMBL1201862, “PubChem BioAssay data set” (2004)
